Laboratory results reported in patent US20240180900A1, “COMPOUNDS AND METHODS FOR THE TARGETED DEGRADATION OF ANDROGEN RECEPTOR” (Arvinas Operations, Inc., priority 2022, published 2024).
“Also recorded” adds a separate entry of the source.

Assay: Phase 1/2 study in mCRPC participants: safety
[1] = all causality SAEs, Phases 1 and 2 combined, N = 47
[2] = all-causality TEAEs, Phase 1, N = 34

COc1cc(O[C@H]2C(C)(C)[C@H](NC(=O)c3ccc(N4CCC(CN5CCN(c6ccc(C(=O)N[C@H]7CCC(=O)NC7=O)c(F)c6)CC5)CC4)cc3)C2(C)C)ccc1C#N [Compound A, 4-(4-((1-(4-(((1R,3R)-3-(4-cyano-3-methoxyphenoxy)-2,2,4,4-tetramethylcyclobutyl)carbamoyl)phenyl)piperidin-4-yl)methyl)piperazin-1-yl)-N—((S)-2,6-dioxopiperidin-3-yl)-2-fluorobenzamide]
DLTs (Part A (Phase 1 dose escalation), 20 mg to 500 mg QD): No DLTs have been reported
Grade 4 or 5 TRAEs (Phase 1): no Grade 4 or 5 TRAEs
TRAE of Grade 3 aspartate aminotransferase increased (Phase 1): 1
TRAE of Grade 3 fatigue (Phase 1): 1
participants who discontinued study treatment due to a TEAE (Phase 1): No participant
treatment discontinuation due to TRAE (Phase 1): no treatment discontinuation
participants with treatment-emergent SAEs regardless of attribution (Phase 1, of 34): 11 participants
tolerability (Phase 1/2, post-NHA mCRPC patients, 40 mg to 500 mg once daily): well-tolerated; also recorded: well tolerated
treatment-related SAEs (Phase 1 and Phase 2): No treatment-related SAEs were reported
grade of the majority of TRAEs (Phase 1 dose escalation and Phase 2 interim data): Grade 1/2
SAEs (Phase 2): no SAEs were reported
TRAE abdominal pain (Phase 2): 2 (15.4%) participants
TRAE alopecia (Phase 2): 2 (15.4%) participants
TRAE dysgeusia (Phase 2): 2 (15.4%) participants
TRAE nausea (Phase 2): 2 (15.4%) participants
TRAE of Grade 3 abdominal pain (Phase 2): 1
dose reductions due to a TRAE (Phase 2): two
treatment discontinuation due to a TRAE (Phase 2): one
participants who discontinued treatment due to a TEAE (Phase 2, Grade 3 abdominal pain, related): One
participants with TEAEs regardless of attribution (Phases 1 and 2, of 47): 44 participants
participants with TEAEs at least potentially related to Compound A (Phases 1 and 2 combined, of 47): 25 participants
Blood and lymphatic system disorders: Any Grade [1]: 1 participants
Blood and lymphatic system disorders: Grade 3 [1]: 0 participants
Blood and lymphatic system disorders: Grade 4 [1]: 1 (2.1) participants
Blood and lymphatic system disorders: Grade 5 [1]: 0 participants
Brain stem stroke: Any Grade [1]: 1 participants
Brain stem stroke: Grade 3 [1]: 0 participants
Brain stem stroke: Grade 4 [1]: 0 participants
Cystitis noninfective: Any Grade [1]: 1 participants
Cystitis noninfective: Grade 3 [1]: 1 participants
Cystitis noninfective: Grade 4 [1]: 0 participants
Cystitis noninfective: Grade 5 [1]: 0 participants
Diarrhoea: Any Grade [1]: 1 participants
Diarrhoea: Grade 3 [1]: 1 participants
Diarrhoea: Grade 4 [1]: 0 participants
Diarrhoea: Grade 5 [1]: 0 participants
Dyspnoea: Any Grade [1]: 1 participants
Dyspnoea: Grade 3 [1]: 1 participants
Dyspnoea: Grade 4 [1]: 0 participants
Dyspnoea: Grade 5 [1]: 0 participants
Febrile neutropenia: Any Grade [1]: 1 participants
Febrile neutropenia: Grade 3 [1]: 0 participants
Febrile neutropenia: Grade 5 [1]: 0 participants
Gastrointestinal disorders: Any Grade [1]: 1 participants
Gastrointestinal disorders: Grade 3 [1]: 1 participants
Gastrointestinal disorders: Grade 4 [1]: 0 participants
Gastrointestinal disorders: Grade 5 [1]: 0 participants
Grade 2 lethargy (SAE) [1]: one
Haematuria: Any Grade [1]: 1 participants
Haematuria: Grade 3 [1]: 1 participants
Haematuria: Grade 4 [1]: 0 participants
Haematuria: Grade 5 [1]: 0 participants
Hypoxia: Any Grade [1]: 1 participants
Hypoxia: Grade 3 [1]: 1 participants
Hypoxia: Grade 4 [1]: 0 participants
Hypoxia: Grade 5 [1]: 0 participants
Infections and infestations: Any Grade [1]: 2 participants
Infections and infestations: Grade 3 [1]: 2 participants
Infections and infestations: Grade 4 [1]: 0 participants
Infections and infestations: Grade 5 [1]: 0 participants
Lethargy: Any Grade [1]: 1 participants
Lethargy: Grade 3 [1]: 0 participants
Lethargy: Grade 4 [1]: 0 participants
Lethargy: Grade 5 [1]: 0 participants
Nervous system disorders: Any Grade [1]: 4 participants
Nervous system disorders: Grade 3 [1]: 2 participants
Nervous system disorders: Grade 4 [1]: 0 participants
Nervous system disorders: Grade 5 [1]: 1 (2.1) participants
Participants with any serious TEAEs: Any Grade [1]: 11 participants
Participants with any serious TEAEs: Grade 3 [1]: 8 participants
Participants with any serious TEAEs: Grade 4 [1]: 1 (2.1) participants
Participants with any serious TEAEs: Grade 5 [1]: 1 (2.1) participants
Pneumonia: Any Grade [1]: 1 participants
Pneumonia: Grade 3 [1]: 1 participants
Pneumonia: Grade 4 [1]: 0 participants
Pneumonia: Grade 5 [1]: 0 participants
Renal and urinary disorders: Any Grade [1]: 3 participants
Renal and urinary disorders: Grade 3 [1]: 3 participants
Renal and urinary disorders: Grade 4 [1]: 0 participants
Renal and urinary disorders: Grade 5 [1]: 0 participants
Respiratory, thoracic and mediastinal disorders: Any Grade [1]: 2 participants
Respiratory, thoracic and mediastinal disorders: Grade 3 [1]: 2 participants
Respiratory, thoracic and mediastinal disorders: Grade 4 [1]: 0 participants
Respiratory, thoracic and mediastinal disorders: Grade 5 [1]: 0 participants
Soft tissue infection: Any Grade [1]: 1 participants
Soft tissue infection: Grade 3 [1]: 1 participants
Soft tissue infection: Grade 4 [1]: 0 participants
Soft tissue infection: Grade 5 [1]: 0 participants
Spinal cord compression: Any Grade [1]: 1 participants
Spinal cord compression: Grade 3 [1]: 1 participants
Spinal cord compression: Grade 4 [1]: 0 participants
Spinal cord compression: Grade 5 [1]: 0 participants
Tremor: Any Grade [1]: 1 participants
Tremor: Grade 3 [1]: 1 participants
Tremor: Grade 4 [1]: 0 participants
Tremor: Grade 5 [1]: 0 participants
Urinary tract obstruction: Any Grade [1]: 1 participants
Urinary tract obstruction: Grade 3 [1]: 1 participants
Urinary tract obstruction: Grade 4 [1]: 0 participants
Urinary tract obstruction: Grade 5 [1]: 0 participants
Alopecia: Any Grade [2]: 4 participants
Alopecia: Grade 3 [2]: 0 participants
Alopecia: Grade 4 [2]: 0 participants
Alopecia: Grade 5 [2]: 0 participants
Anaemia: Any Grade [2]: 6 participants
Anaemia: Grade 3 [2]: 0 participants
Anaemia: Grade 4 [2]: 0 participants
Anaemia: Grade 5 [2]: 0 participants
Aspartate aminotransferase increased: Any Grade [2]: 5 participants
Aspartate aminotransferase increased: Grade 3 [2]: 1 participants
Aspartate aminotransferase increased: Grade 4 [2]: 0 participants
Aspartate aminotransferase increased: Grade 5 [2]: 0 participants
Blood alkaline phosphatase increased: Any Grade [2]: 8 participants
Blood alkaline phosphatase increased: Grade 3 [2]: 0 participants
Blood alkaline phosphatase increased: Grade 4 [2]: 0 participants
Blood alkaline phosphatase increased: Grade 5 [2]: 0 participants
Blood and lymphatic system disorders: Any Grade [2]: 7 participants
Blood and lymphatic system disorders: Grade 3 [2]: 0 participants
Blood and lymphatic system disorders: Grade 4 [2]: 1 participants
Blood and lymphatic system disorders: Grade 5 [2]: 0 participants
Blood creatinine increased: Any Grade [2]: 7 participants
Blood creatinine increased: Grade 3 [2]: 0 participants
Blood creatinine increased: Grade 4 [2]: 0 participants
Blood creatinine increased: Grade 5 [2]: 0 participants
Constipation: Any Grade [2]: 4 participants
Constipation: Grade 3 [2]: 0 participants
Constipation: Grade 4 [2]: 0 participants
Constipation: Grade 5 [2]: 0 participants
Cough: Any Grade [2]: 4 participants
Cough: Grade 3 [2]: 0 participants
Cough: Grade 4 [2]: 0 participants
Cough: Grade 5 [2]: 0 participants
Decreased appetite: Any Grade [2]: 5 participants
Decreased appetite: Grade 3 [2]: 0 participants
Decreased appetite: Grade 4 [2]: 0 participants
Decreased appetite: Grade 5 [2]: 0 participants
Diarrhoea: Any Grade [2]: 7 participants
Diarrhoea: Grade 3 [2]: 2 participants
Diarrhoea: Grade 4 [2]: 0 participants
Diarrhoea: Grade 5 [2]: 0 participants
Dyspnoea: Any Grade [2]: 4 participants
Dyspnoea: Grade 3 [2]: 1 participants
Dyspnoea: Grade 4 [2]: 0 participants
Dyspnoea: Grade 5 [2]: 0 participants
Fatigue: Any Grade [2]: 12 participants
Fatigue: Grade 3 [2]: 1 participants
Fatigue: Grade 4 [2]: 0 participants
